Measurements published in publication PMC11040665, “Aminothiazolone Inhibitors Disrupt the Protein–RNA Interaction of METTL16 and Modulate the m^6A RNA Modification” (JACS Au, 2024).
Entries after “also recorded” stand apart in the source; their conditions may differ.

How the values were obtained:
[1] = target: T1, METTL16–MAT2A-hp1 mRNA interaction (METTL16 MTD 1–291, FAM-labeled MAT2A-hp1 RNA) (Homo sapiens, UniProt Q86W50); experiment: Fluorescence polarization (FP) assay, disruption of METTL16 binding to FAM-MAT2A-hp1 RNA; settings: for IC50 class in the FP assay (MAT2A-hp1): 50 nM METTL16 MTD, 5 nM FAM-MAT2A-hp1, given as 'inactive'
T1 sequence (Q86W50 1-291): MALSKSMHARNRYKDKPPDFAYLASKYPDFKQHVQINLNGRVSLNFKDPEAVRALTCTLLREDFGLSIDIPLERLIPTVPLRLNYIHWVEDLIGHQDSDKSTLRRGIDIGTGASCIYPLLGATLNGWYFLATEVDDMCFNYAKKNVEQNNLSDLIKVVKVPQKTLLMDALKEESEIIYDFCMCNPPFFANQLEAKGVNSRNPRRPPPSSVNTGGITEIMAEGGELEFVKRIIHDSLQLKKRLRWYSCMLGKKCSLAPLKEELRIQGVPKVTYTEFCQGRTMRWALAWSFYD
Experimental: The binding of METTL16 to the FAM-labeled RNA probe formed a complex that led to a higher FP signal in comparison to that of the unbound RNA probe (Figure 2A). […] The Z-factor of 0.91 indicated the suitability of the assay condition (Figure S2D). […] In both FP assay and EMSA, a final concentration of 50 nM METTL16 and 5 nM FAM-MAT2A-hp was used. The METTL16 MTD (amino acids 1–291) was used in this study unless specifically indicated otherwise.
The FP assay was performed using 384-well black plates (Corning #4514) in a total reaction volume of 20 μL, with the final concentration of protein and RNA being 50 and 5 nM respectively. Compounds were diluted in FP buffer and incubated with protein for 30 min at room temperature, then FAM-MAT2A-hp1 RNA probe was added and the fluorescence polarization was measured using a TECAN Spark plate reader, under the excitation wavelength of 485 nm and the emission wavelength of 535 nm with bandwidth of 20 nm. 1% DMSO was used as the control. The inhibition was calculated with the equation: inhibition = 100%(Control – X)/(Control – Blank); Control: DMSO with protein and FAM-RNA; Blank: DMSO with FAM-RNA; X: compound with protein and FAM-RNA. The IC50 value was further determined using GraphPad Prism 9. […] The polarization was measured under an excitation wavelength of 630 nm and an emission wavelength of 680 nm with a bandwidth of 20 nm.

[2] = target: T2, METTL16 (1-291)–FAM-MAT2A-hp1 RNA (Homo sapiens, UniProt Q86W50); experiment: FP assay after incubating SAM with METTL16; type: binding; settings: SAM incubated with METTL16 before the FP assay
T2 construct: METTL16 MTD (1–291) was subcloned to pOPINB plasmid; His tag followed by HRV 3C cleavage site (N, cleaved yes); made in house; host or cells: E. coli Rosetta (DE3)
T2 sequence (Q86W50 1-291): T1 sequence (Q86W50 1-291)

[3] = target: T3, methyltransferase activity of METTL16 MTD toward MAT2A-hp1 (Homo sapiens, UniProt Q86W50); experiment: In vitro methylation assay (MTase Glo); type: biochemical; settings: RNA substrate MAT2A-hp1
T3 construct: METTL16 MTD (1–291) was subcloned to pOPINB plasmid; His tag followed by HRV 3C cleavage site (N, cleaved yes); made in house; host or cells: E. coli Rosetta (DE3)
T3 sequence (Q86W50 1-291): T1 sequence (Q86W50 1-291)
Experimental: Next, we evaluated the inhibition of the METTL16 methylation using the MTase Glo assay kit (Promega) measuring the methyltransferase activity based on the formation of the methylation product S-adenosyl homocysteine, which was converted to ADP by the MTase-Glo reagent to trigger a subsequent luciferase reaction (Figure 5E).
The methyltransferase activity of METTL16 MTD was measured using an MTase Glo kit (Promega V7601) following the manufacturer’s instructions. The reaction was carried out in white 384-well plates (Corning #3824), with a total methyltransferase reaction volume of 8 μL, and the final concentrations of METTL16 MTD, MAT2A-hp1, and SAM were 1, 1, and 10 μM, respectively, and 1% of DMSO was used as a control. […] To use SAM at a different final concentration, the concentration of SAM was adjusted accordingly in a 2× substrate solution.

[4] = tested on: MDA-MB-231 cells; experiment: Colony formation assay; type: cell-based, human; settings: 7 days, three tested concentrations
Experimental: MDA-MB-231 cells were collected and seeded with the density of 1000 cells per well into 24-well plates; after being cultured overnight, the medium was exchanged and treated with indicated compounds or DMSO (0.5%) as the control. The medium change and treatment were performed every 3 days. After 7 days, the cell culture medium was discarded, and cells were washed with PBS and fixed with 4% paraformaldehyde solution at room temperature for 15 min; the paraformaldehyde solution was removed, and cells were washed with PBS again to remove the paraformaldehyde. Then cells were stained with 0.1% (w/v) crystal violet. After staining for 15 min, the cells were washed with H2O to remove the extra dye and then photographed.

[5] = target: T4, METTL16 MTD–U6 snRNA Δ interaction (Homo sapiens, UniProt Q86W50); experiment: FP assay with Cy5-labeled U6 snRNA Δ; type: binding
T4 construct: METTL16 MTD (1–291) was subcloned to pOPINB plasmid; His tag followed by HRV 3C cleavage site (N, cleaved yes); made in house; host or cells: E. coli Rosetta (DE3)
T4 sequence (Q86W50 1-291): T1 sequence (Q86W50 1-291)

[6] = target: T5, METTL16 MTD–GGACU-containing RNA interaction (Homo sapiens, UniProt Q86W50); experiment: EMSA with GGACU-containing RNA; settings: 5 nM RNA, 600 nM METTL16 MTD
T5 sequence (Q86W50 1-291): T1 sequence (Q86W50 1-291)
Experimental: METTL16 MTD protein (1–291) was incubated with the indicated compound or DMSO in a buffer containing 20 mM HEPES, pH 7.5, 50 mM NaCl, 0.05% v/v Tween 20, and 0.05 mg/mL BGG at room temperature for 30 min; subsequently, FAM-MAT2A-hp1 RNA probe was added and incubated at room temperature for 10 min, the final of protein and RNA are 50 and 5 nM respectively, and 1% DMSO was used as the control. […] The gel was detected and imaged by Chemi Doc MP (Bio-Rad). […] EMSA for testing compounds with GGAUC-motif containing RNA and METTL16 MTD interaction was performed using the method described above, expecting that the final of METTL16 MTD protein and FAM-labeled-GGACU RNA are 600 nM and 5 nM respectively. EMSA for RNA binding: indicated concentrations of fluorophore-labeled RNA were incubated with indicated concentrations of protein in EMSA buffer for 15 min at room temperature, then loaded to native PAGE gels and imaged with the method described above.

[7] = target: T6, METTL16 (1-291) (Homo sapiens, UniProt Q86W50); experiment: Covalent binding evaluation by protein LC–MS; settings: 30 μM METTL16 (1-291), 100 μM compound, 30 or 150 min
T6 construct: METTL16 MTD (1–291) was subcloned to pOPINB plasmid; His tag followed by HRV 3C cleavage site (N, cleaved yes); made in house; host or cells: E. coli Rosetta (DE3)
T6 sequence (Q86W50 1-291): T1 sequence (Q86W50 1-291)
Experimental: To evaluate whether the aminothiazolones covalently bind to METTL16, we performed the LC–MS analysis after incubating the protein with aminothiazolones for 30 and 150 min, respectively. In the case of covalent binding, we would expect to observe the formation of covalent adducts, which would accrue over time. […] Besides the LC–MS analysis result, an irreversible inhibition counter screening indicated the reversible inhibitory activity of the aminothiazolones (Figure S8A).
Figure S7. Covalent evaluation of METTL16 inhibitors via LC-MS. (A) Deconvoluted mass spectrum of 30 µM METTL16 (1-291) incubated with 1% DMSO for 30 min (left) and 150 min (right). (B), (C), (D) Deconvoluted […]
(right). Expected Mass for METTL16 (1-291), 33455.7 Da. The observed small mass shift of ~50 Da appeared in both the DMSO control and compound-treated samples was probably formed by the solvent used in the LC-MS.
(1 picture or pasted object on this page, not shown here)
For computational docking analysis of aminothiazolones to the RNA binding site of METTL16 (PDB code: 6B91)2 Schrödinger® Maestro 12.3 was used. […]
Chemical states were generated with the ligand preparation module and METTL16 conformation with the protein preparation module. […] The glide dock module was used and the results were evaluated according to interactions between small molecules and METTL16, small molecule orientations, docking scores and solvent exposure patterns. […]
METTL16 MTD protein was diluted in SEC buffer (20mM pH 7.5, 200 mM NaCl, 0.5 mM TCEP,5% v/v glycerol) to a final concentration of 30 µM, and incubated with DMSO or 100 μM compound (final 1% DMSO) at room temperature. After incubation (30 min or 150 min), the samples were analyzed on an Agilent 1260 II Infinity system equipped with an electrospray ion source in positive mode, run through a Desalting cartridge (AdvanceBio Desalting-RP, 2.1 mm, 12.5mm, Agilent) with a gradient of 5-80% HPLC-grade acetonitrile (+ 0.1% TFA) in HPLC-grade water (+ 0.1% TFA) (flowrate: 0.4 mL/min, runtime: 6 min). […]

Row | SMILES | IC50 [1] [µM] | IC50 class in the FP assay (MAT2A-hp1) [1] | also measured
1 | COc1ccc(S(=O)(=O)NC2=NC(=O)C(=C3C(=O)Nc4ccc(C)cc43)S2)cc1 [Compound 2] | 24.3 ± 5.3 |  | 
2 | COc1ccc(S(=O)(=O)NC2=NC(=O)C(=C3C(=O)Nc4ccc(OC)cc43)S2)cc1 [Compound 3] | 23.8 ± 5.5 |  | 
3 | COc1ccc(S(=O)(=O)NC2=NC(=O)C(=C3C(=O)Nc4ccc([N+](=O)[O-])cc43)S2)cc1 [Compound 4] | 8.2 ± 0.76 |  | 
4 | COc1ccc(S(=O)(=O)NC2=NC(=O)C(=C3C(=O)Nc4ccc(Br)cc43)S2)cc1 [Compound 8] | 12.4 ± 2.8 |  | 
5 | COc1ccc(S(=O)(=O)NC2=NC(=O)C(=C3C(=O)N(c4ccccc4)c4ccccc43)S2)cc1 [Compound 10] |  | inactive | 
6 | COc1ccc(S(=O)(=O)NC2=NC(=O)C(=C3C(=O)Nc4c(F)cccc43)S2)cc1 [Compound 11] | 28.9 ± 5.8 |  | 
7 | COc1ccc(S(=O)(=O)NC2=NC(=O)C(=C3C(=O)Nc4cc(F)ccc43)S2)cc1 [Compound 12] |  | inactive | 
8 | COc1ccc(S(=O)(=O)NC2=NC(=O)C(=C3C(=O)Nc4ccc(F)cc43)S2)cc1 [Compound 13] | 26.9 ± 3.5 |  | 
9 | COc1ccc(S(=O)(=O)NC2=NC(=O)C(=C3C(=O)Nc4c(Cl)cccc43)S2)cc1 [Compound 14] | 57.6 ± 1.3 |  | 
10 | COc1ccc(S(=O)(=O)NC2=NC(=O)C(=C3C(=O)Nc4cc(Cl)ccc43)S2)cc1 [Compound 15] | 26.4 ± 5 |  | 
11 | COc1ccc(S(=O)(=O)NC2=NC(=O)C(=C3C(=O)N(C)c4ccc(F)cc43)S2)cc1 [Compound 16] | 15 ± 1 |  | 
12 | COc1ccc(S(=O)(=O)NC2=NC(=O)C(=C3C(=O)N(C)c4cc(F)ccc43)S2)cc1 [Compound 17] | 22.8 ± 2.3 |  | 
13 | COc1ccc(S(=O)(=O)NC2=NC(=O)C(=Cc3cc4ccccc4[nH]3)S2)cc1 [Compound 18] | 23.2 ± 2.7 |  | 
14 | Cc1ccc(S(=O)(=O)NC2=NC(=O)C(=C3C(=O)Nc4ccc(Cl)cc43)S2)cc1 [Compound 19] | 13.5 ± 1.7 |  | 
15 | O=C1N=C(NS(=O)(=O)c2ccccc2)SC1=C1C(=O)Nc2ccc(Cl)cc21 [Compound 20] | 15.7 ± 1.6 |  | 
16 | O=C1N=C(NS(=O)(=O)c2cccc([N+](=O)[O-])c2)SC1=C1C(=O)Nc2ccc(Cl)cc21 [Compound 22] | 12 ± 2 |  | 
17 | CC(C)(C)c1ccc(S(=O)(=O)NC2=NC(=O)C(=C3C(=O)Nc4ccc(Cl)cc43)S2)cc1 [Compound 23] |  | inactive | 

Row | SMILES | IC50 [1] [µM] | IC50 class in the FP assay (MAT2A-hp1) [1] | also measured
18 | O=C1N=C(NS(=O)(=O)c2ccc(F)cc2Cl)SC1=C1C(=O)Nc2ccc(Cl)cc21 [Compound 24] | 14 ± 1.5 |  | 
19 | O=C1N=C(NS(=O)(=O)c2ccc(C3CCCCC3)cc2)SC1=C1C(=O)Nc2ccc(Cl)cc21 [Compound 25] |  | inactive | 
20 | O=C1N=C(NS(=O)(=O)c2ccc(-c3ccccc3)cc2)SC1=C1C(=O)Nc2ccc(Cl)cc21 [Compound 26] |  | inactive | 
21 | CS(=O)(=O)NC1=NC(=O)C(=C2C(=O)Nc3ccc(Cl)cc32)S1 [Compound 29] | 36.2 ± 2.8 |  | 
22 | O=C1N=C(NS(=O)(=O)c2ccc(C(F)(F)F)cc2)SC1=C1C(=O)Nc2ccc(Cl)cc21 [Compound 30] | 13.6 ± 3.6 |  | 
23 | O=C1N=C(NS(=O)(=O)c2ccc3ccccc3c2)SC1=C1C(=O)Nc2ccc(Cl)cc21 [Compound 31] | 9.9 ± 1.3 |  | 
24 | O=C1N=C(NS(=O)(=O)c2ccc(F)cc2)SC1=C1C(=O)Nc2ccc(Cl)cc21 [Compound 33] | 30.4 ± 10.5 |  | 
25 | Cc1ccc(C(=O)NC2=NC(=O)C(=C3C(=O)Nc4ccc(Cl)cc43)S2)cc1 [Compound 34] |  | inactive | 
26 | COc1ccc(C(=O)NC2=NC(=O)C(=C3C(=O)Nc4ccc(Cl)cc43)S2)cc1 [Compound 35] |  | inactive | 
27 | COc1ccc(C(=O)NC2=NC(=O)C(=C3C(=O)Nc4ccc(Cl)cc43)S2)cc1OC [Compound 36] |  | inactive | 
28 | O=C1N=C(NC(=O)c2ccc(F)cc2)SC1=C1C(=O)Nc2ccc(Cl)cc21 [Compound 37] |  | inactive | 
29 | COc1ccc(S(=O)(=O)NC2=NC(=O)C(=C3C(=O)Nc4ccc(Cl)cc43)O2)cc1 [Compound 38] |  | inactive | inhibitory activity against METTL16 in the FP assay, in words ([1]; FAM-MAT2A-hp1 RNA): did not show inhibitory activity
30 | CN1C(=O)C(=C2SC(NS(=O)(=O)c3ccc(C(=O)O)cc3)=NC2=O)c2cc([N+](=O)[O-])ccc21 [Compound 46] | 2 |  | IC50 under different SAM concentrations (FP assay), in words [2]: remained; inhibition of the methyltransferase activity of METTL16 MTD, in words [3]: dose-dependently inhibited; also recorded: potent inhibitory activity; inhibition on colony formation, in words [4]: did not show obvious inhibition on colony formation; IC50 [5]: 2.8 µM; inhibition of METTL16–GGACU RNA binding in EMSA, in words [6]: dose-dependently inhibited; covalent adduct formation with METTL16 (LC–MS) [7]: no such covalent adduct with a mass shift was observed
31 | COC(=O)c1ccc(S(=O)(=O)NC2=NC(=O)C(=C3C(=O)N(C)c4ccc(Br)cc43)S2)cc1 [Compound 48] | 29.4 ± 7.5 |  | fold decrease in inhibitory activity (FP assay) ([1]; 42 compared to compound 4, methyl ester 48 compared to the carboxylic acid analogue): 20 fold
32 | CN1C(=O)C(=C2SC(NS(=O)(=O)c3cccc(C(=O)O)c3)=NC2=O)c2cc(Br)ccc21 [Compound 49] | 3 |  | IC50 [5]: 5.3 µM
33 | O=C1CSC(NS(=O)(=O)c2ccccc2)=N1 [Compound Ia] | > 100 | inactive | 
